What was measured:
[1] = molecular target: T1, progesterone receptor (PR) (Homo sapiens, UniProt P06401); assay: T47D alkaline phosphatase assay, PR antagonistic activity in the presence of 1 nM P4; type: cell-based; conditions: T47D cells; for IC50: 1.0 nM P4, 48 h, mean ± SD from three independent experiments; for PR antagonistic activity (in words): in the presence of 1 nM P4
T1 construct: alkaline phosphatase assay with the T47D human breast cancer cell line; endogenous in cells; host or cells: T47D
T1 sequence (P06401 1-933): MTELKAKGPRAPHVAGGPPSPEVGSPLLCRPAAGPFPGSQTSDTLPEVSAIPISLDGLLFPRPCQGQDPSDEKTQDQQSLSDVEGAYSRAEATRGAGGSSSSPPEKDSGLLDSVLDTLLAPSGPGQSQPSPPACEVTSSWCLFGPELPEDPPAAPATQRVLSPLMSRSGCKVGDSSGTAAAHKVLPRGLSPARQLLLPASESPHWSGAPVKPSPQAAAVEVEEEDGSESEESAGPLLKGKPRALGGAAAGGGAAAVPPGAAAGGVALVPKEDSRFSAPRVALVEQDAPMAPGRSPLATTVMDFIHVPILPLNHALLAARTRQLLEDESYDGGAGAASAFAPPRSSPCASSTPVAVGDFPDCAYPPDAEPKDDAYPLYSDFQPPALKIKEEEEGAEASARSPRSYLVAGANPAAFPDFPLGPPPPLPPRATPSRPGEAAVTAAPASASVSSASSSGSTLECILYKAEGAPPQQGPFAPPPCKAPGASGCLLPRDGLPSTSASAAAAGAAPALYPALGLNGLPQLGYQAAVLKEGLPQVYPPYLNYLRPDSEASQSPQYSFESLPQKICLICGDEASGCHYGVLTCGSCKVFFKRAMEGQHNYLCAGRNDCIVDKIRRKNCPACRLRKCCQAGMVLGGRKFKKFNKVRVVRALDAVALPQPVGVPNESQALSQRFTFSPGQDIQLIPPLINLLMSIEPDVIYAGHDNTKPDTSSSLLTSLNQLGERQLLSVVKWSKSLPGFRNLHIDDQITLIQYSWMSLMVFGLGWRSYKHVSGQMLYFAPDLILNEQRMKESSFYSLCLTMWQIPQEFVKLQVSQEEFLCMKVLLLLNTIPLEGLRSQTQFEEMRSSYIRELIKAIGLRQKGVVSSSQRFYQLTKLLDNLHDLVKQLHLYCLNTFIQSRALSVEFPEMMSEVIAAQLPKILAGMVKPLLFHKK
Experimental: The PR agonistic and antagonistic activities of the synthesized phosphine–borane derivatives were evaluated using an alkaline phosphatase assay with the T47D human breast cancer cell line. […] The basal alkaline phosphatase activity was also not affected by the tested compounds alone. […] The PR antagonistic activities of the compounds were assessed in the presence of 1 nM of P4 (5). We also calculated the molecular volume of each compound to investigate the structure–activity relationship (SAR). Table 2 summarizes the PR antagonistic activity and calculated volumes of the synthesized compounds. […] We investigated the binding affinity of the compounds toward the PR ligand-binding domain (LBD) using a fluorescence polarization assay system. […] We also investigated the activity of compounds 28 and 34 toward the androgen receptor (AR) by means of cell-proliferation promoting/inhibitory activity toward androgen-dependent SC-3 cells. […].
T47D alkaline phosphatase assays were performed as previously described, with minor modifications. Briefly, the human breast cancer cell line T47D (HMS LINCS database Accession Numbers: 50541) was routinely cultivated in RPMI 1640 medium with 10% FBS at 37 °C in a 5% CO2 humidified incubator. The cells were plated in 96-well plates and incubated overnight in a 5% CO2 humidified incubator at 37 °C. The next day, the cells were treated with a fresh medium containing the test compound in the presence of 1 nM of progesterone and further incubated for 48 h. The medium was aspirated, and the cells were fixed with 100 μL of 1.8% formalin–PBS. The fixed cells were washed with PBS, and 100 μL of an assay buffer (1 mg/mL p-nitrophenol phosphate in diethanolamine water solution, pH 9.0) was added. The mixture was incubated at room temperature for 2 h under light-shielded conditions. The absorbance was measured at 405 nm using a DTX 880 Multimode Detector (Beckman Coulter, Brea, CA, USA). All data points were measured in triplicate, and IC50 values were calculated from three independent experiments.

[2] = LogP (1-octanol/water partition coefficient) determined using HPLC; type: physicochemical
Experimental: Hydrophobicity is a key determinant of the activity and pharmacokinetics of biologically active compounds, and the octanol–water partition coefficient (P) and logarithm value (LogP) are widely used hydrophobicity parameters. The LogP values of the synthesized compounds were determined using HPLC [45, 46]. Table 1 summarizes the experimentally determined LogP values and calculated values. […] From the viewpoint of the phosphine structure, an increase in the number of carbon atoms increased hydrophobicity in a predictable manner.
The 1-octanol/water partition coefficient P was determined using HPLC based on the OECD Guideline for Testing Chemicals. A COSMOSIL Packed Column 5C18-MS-II (5 μm, 150 mm × 4.6 mm id, Nacalai Tesque, Inc., Kyoto, Japan) was fitted on an HPLC instrument (Multiwavelength Detector, MD-2010 Plus. JASCO, Tokyo, Japan) equipped with a pump (PU-2080, JASCO) and an oven (SSC-2120, Senshu Scientific Co., Ltd., Tokyo, Japan). The injection volume was 20 µL; the mobile phase was methanol–water 75% (v/v); and the flow rate was 1.0 mL/min in all cases. Compounds were detected by measuring the UV absorption at 240 nm. The temperature of the column was kept at 40.0 (± 0.1) °C during the measurement. The measurement was performed in triplicate, and the mean value was calculated. The dead time t0 was measured with thiourea as the unretained compound, and the capacity factor k was calculated using the equation logk = log (tr − t0/t0), where tr represents the retention time of the compound. A calibration graph was determined experimentally using reference compounds (4-methylphenol, 4-chlorophenol, 4-phenylphenol, diphenylether, fluoranthene, and dichlorodiphenyltrichloroethane) with known logP values. The LogP values of phosphine–boranes were calculated based on a calibration graph (LogP = 2.6269 logkw + 3.059, R^2 = 0.9915).

[3] = HPLC (OECD guideline), C18 column, methanol–water 75% (v/v), 40 °C, mean of triplicate
[4] = HPLC, tentative value: hydrophobicity beyond the range of the reference compounds (1.9 < LogP < 6.5)

SMILES | IC50 [1] | PR antagonistic activity (in words) [1] | chromatographic logP [2, 3] | melting point | chromatographic logP [2, 4]
C[P+](C)([BH2-]c1cccc(C(F)(F)F)c1)c1ccccc1 [Compound 17, B-(3-Trifluoromethyl)phenyl Dimethyl(phenyl)phosphine–Borane] | 1160 ± 600 nM | potent activities | 4.54 | 75 to 75.8 °C | –
CC(C)[P+]([BH2-]c1cccc(C(F)(F)F)c1)(C(C)C)C(C)C [Compound 20, B-3-(Trifluoromethyl)phenyl Triisopropylphosphine–Borane] | 1350 ± 470 nM | potent activities | 5.89 | – | –
C[P+](C)(C)[BH2-]c1cccc(C(F)(F)F)c1 [Compound 16, B-3-(Trifluoromethyl)phenyl Trimethylphosphine–Borane] | > 10000 nM | only weak potency | 3.65 | – | –
CN(C)[P+]([BH2-]c1cccc(C(F)(F)F)c1)(N(C)C)N(C)C [Compound 27, B-3-(Trifluoromethyl)phenyl Tris(dimethylamino)phosphine–Borane] | 1200 ± 630 nM | potent activities | 5.39 | – | –
CC(C)[P+]([BH2-]c1ccc(C(F)(F)F)cc1)(c1ccccc1)C(C)C [Compound 33, B-4-(Trifluoromethyl)phenyl Diisopropyl(phenyl)phosphine–Borane] | 2010 ± 580 nM | – | 6.15 | 94.8 to 95.2 °C | –
CC(C)[P+]([BH2-]c1cccc(C(F)(F)F)c1)(c1ccccc1)C(C)C [Compound 21, B-3-(Trifluoromethyl)phenyl Diisopropyl(phenyl)phosphine–Borane] | 3350 ± 1490 nM | moderate PR antagonistic activity | 5.93 | 118.7 to 119.1 °C | –
CCCC[P+]([BH2-]c1cccc(C(F)(F)F)c1)(CCCC)CCCC [Compound 23, B-3-(Trifluoromethyl)phenyl Tri-n-Butylphosphine–Borane] | > 10000 nM | only weak potency | – | – | 7.34
CC[P+]([BH2-]c1cccc(C(F)(F)F)c1)(CC)c1ccccc1 [Compound 19, B-3-(Trifluoromethyl)phenyl Diethyl(phenyl)phosphine–Borane] | 1120 ± 220 nM | potent activities | 5.24 | 40 to 40.5 °C | –
CC[P+]([BH2-]c1cccc(C(F)(F)F)c1)(CC)CC [Compound 18, B-3-(Trifluoromethyl)phenyl Triethylphosphine–Borane] | 3670 ± 3340 nM | moderate PR antagonistic activity | 4.88 | – | –

Continued, values first:

IC50 [1] | PR antagonistic activity (in words) [1] | chromatographic logP [2, 3] | melting point | chromatographic logP [2, 4] | SMILES
650 ± 170 nM | potent activities | 5.21 | – | – | FC(F)(F)c1cccc([BH2-][P+](C2CC2)(C2CC2)C2CC2)c1 [Compound 22, B-3-(Trifluoromethyl)phenyl Tricyclopropylphosphine–Borane]
1760 ± 1440 nM | – | 4.99 | – | – | CC[P+]([BH2-]c1ccc(C(F)(F)F)cc1)(CC)CC [Compound 30, B-4-(Trifluoromethyl)phenyl Triethylphosphine–Borane]
1400 ± 880 nM | – | 5.64 | 41.1 to 41.6 °C | – | CN(C)[P+]([BH2-]c1ccc(C(F)(F)F)cc1)(N(C)C)N(C)C [Compound 39, B-4-(Trifluoromethyl)phenyl Tris(dimethylamino)phosphine–Borane]
2630 ± 720 nM | – | – | 88 to 88.6 °C | 7.95 | FC(F)(F)c1ccc([BH2-][P+](C2CCCC2)(C2CCCC2)C2CCCC2)cc1 [Compound 36, B-4-(Trifluoromethyl)phenyl Tricyclopentylphosphine–Borane]
1780 ± 970 nM | – | 5.41 | 62 to 62.3 °C | – | CC[P+]([BH2-]c1ccc(C(F)(F)F)cc1)(CC)c1ccccc1 [Compound 31, B-4-(Trifluoromethyl)phenyl Diethyl(phenyl)phosphine–Borane]
– | – | – | 52.7 to 53.7 °C | 7.34 | FC(F)(F)c1ccc([BH2-][PH+](C2CCCCC2)C2CCCCC2)cc1 [Compound 38, B-4-(Trifluoromethyl)phenyl Dicyclohexylphosphine–Borane]
> 10000 nM | – | – | 126.7 to 127 °C | 8.97 | FC(F)(F)c1ccc([BH2-][P+](C2CCCCC2)(C2CCCCC2)C2CCCCC2)cc1 [Compound 37, B-4-(Trifluoromethyl)phenyl Tricyclohexylphosphine–Borane]
1610 ± 870 nM | – | 4.65 | 78 to 78.3 °C | – | C[P+](C)([BH2-]c1ccc(C(F)(F)F)cc1)c1ccccc1 [Compound 29, B-4-(Trifluoromethyl)phenyl Dimethyl(phenyl)phosphine–Borane]
– | – | – | – | 7.28 | FC(F)(F)c1cccc([BH2-][PH+](C2CCCCC2)C2CCCCC2)c1 [Compound 26, B-3-(Trifluoromethyl)phenyl Dicyclohexylphosphine–Borane]
> 10000 nM | only weak potency | – | 100 to 100.5 °C | 8.69 | FC(F)(F)c1cccc([BH2-][P+](C2CCCCC2)(C2CCCCC2)C2CCCCC2)c1 [Compound 25, B-3-(Trifluoromethyl)phenyl Tricyclohexylphosphine–Borane]
1510 ± 530 nM | – | 6.06 | 59 to 59.4 °C | – | CC(C)[P+]([BH2-]c1ccc(C(F)(F)F)cc1)(C(C)C)C(C)C [Compound 32, B-4-(Trifluoromethyl)phenyl Triisopropylphosphine–Borane]
6640 ± 870 nM | moderate PR antagonistic activity | – | – | 7.84 | FC(F)(F)c1cccc([BH2-][P+](C2CCCC2)(C2CCCC2)C2CCCC2)c1 [Compound 24, B-3-(Trifluoromethyl)phenyl Tricyclopentylphosphine–Borane]

— paper PMC11013038, “Design, Synthesis, and Evaluation of B-(Trifluoromethyl)phenyl Phosphine–Borane Derivatives as Novel Progesterone Receptor Antagonists” (Molecules, 2024)
